# Legend:
# [1] = 14-day oral toxicity / MTD study; design: species or system female athymic nude mice; conditions: female, athymic nude, mouse, in vivo; oral, 14 days, estimated; read-out: maximum tolerated dose (MTD)
# Procedure: Three different doses, i.e., 10, 25, and 50 mg/kg/day (formulated in 40% β-cyclodextrin in saline) of each compound were administered daily by oral gavage for 14 days. Each group consisted of 3 mice. Their body weight kinetics (loss in body weight, a clinical sign of toxicity) was observed during the 14 days of dosing following established procedures. Changes in body weight were scored on a scale of 0–4 as follows: (1) Weight loss: (10 g = 4, 7–9 g = 3, 4–6 g = 2, 1–3 g = 1; severe = 3, moderate = 2, slight = 1, none = 0).
# [2] = tested on: MDA-MB-231 tumor xenografts; assay: MDA-MB-231 cell-line derived xenograft (CDX), IP dose study; type: in vivo, athymic nude mice; conditions: for tumor growth inhibition (TGI): 5 days a week, 4 weeks
# From the text: Female athymic nude (Jackson Laboratory, Bar Harbor, Maine, USA) 5–6 weeks of age were housed under complete aseptic conditions, fed autoclaved pellets and sterile water ad libitum. Following a week of acclimatization, approximately 1 × 10^6 MDA-MB-231 cells were inoculated into both flanks for MDA-MB-231 derived xenograft tumors. Tumor-bearing mice (tumor volume around 90–110 mm^3) were randomized into various treatment groups (5 mice in each group; compounds formulated in vehicle) and treated as follows: (i) vehicle control (40% β-cyclodextrin in ddH2O, IP), (ii) VNLG-152R (5 mg/kg, IP, once daily), (iii) VNLG-152 (10 mg/kg, IP, once daily) and (iv) VNLG-152 (20 mg/kg, IP, once daily) 5 days/week for 29 days. Tumors were measured twice weekly with calipers and tumor volume was calculated by the formula: […] (mm^3). Animals were also weighed weekly and monitored for general health status and signs of possible toxicity due to treatments. Mice were sacrificed after the indicated periods of treatment and tumors and organs excised. Tumors were divided and either flash frozen in liquid nitrogen or placed in 10% buffered formalin for western blot analysis, immunohistochemistry (IHC), and hematoxylin and eosin (H & E) staining. It is important to state here that the control was part of a large study with our other retinamides whose data has already been reported.
# Western blotting of tumor tissue lysates was performed according to standard protocol. Briefly, 30–50 μg protein per lysate was denatured with 2× sample buffer and resolved on 12 or 16% Tris–glycine gels by sodium dodecyl sulfate–polyacrylamide gel electrophoresis. Separated proteins were transferred onto nitrocellulose membrane by western blotting, and membrane was blocked for 1 h in blocking buffer and then incubated with specific primary antibodies (1:1000 dilution), followed by peroxidase-conjugated appropriate secondary antibody (1:3000 dilution). Finally, proteins were visualized by enhanced chemiluminescence detection and exposure to X-ray film. To confirm equal protein loading, membranes were stripped and re-probed with mouse monoclonal anti-β-actin primary antibody (Sigma).
# MDA-MB-436 (MSL) = assay: MTT cell growth assay, 7 days; type: cell-based; conditions: Homo sapiens, MDA-MB-436, 168 h
# Procedure: (§1) Figure 3 In vitro characterization, pharmacokinetics and toxicity profile of VNLG-152R and its two enantiomers. (A) HPLC chromatograms racemic VNLG-152R (left panel) and the resolved enantiomers VNLG-152E1 and VNLG-152E2 (right panel). The conditions of HPLC procedure are presented in Supplementary Materials. (B) Table summarizing GI50 values (µM) each cell line treated with VNLG-152R and its enantiomers. TNBC cell subtypes were treated with listed compound (0.1 nmol/L–100 µmol/L) for 7 days and the GI50 values for the anti-proliferative effects of the compounds were determined from dose response curves (by a nonlinear regression analysis using Graph Pad Prism). Data represents the results from six independent experiments for each cell line. (C) Plasma concentration versus time profile after intravenous (IV, 2 mg/kg each, top panel) or oral (PO, 20 mg/kg each, bottom panel) of VNLG-152R (red), VNLG-152E1 (purple) and VNLG-152E2 (blue) to female CD1 mice. Values represent the mean plasma concentrations from three mice per time point. (D) Table of the pharmacokinetic parameters of various compounds after IV and PO dosing. AUC = area under the curve, T1/2 = elimination half-life, Cmax = maximum plasma concentration, F (%) = oral bioavailability. (E) Effects of VNLG-152R, VNLG-152E1 and VNLG-152E2 on body weight and clinical observations at chronic dose termination of study. Three different doses, i.e., 10, 25, and 50 mg/kg/day (formulated in 40% β-cyclodextrin in saline) of each compound were administered daily by oral gavage for 14 days. Each group consisted of three mice. Loss in body weight, a clinical sign of toxicity was observed during the 14 days of dosing and the maximum tolerated dose (MTD) was estimated following established procedures. Changes in body weight were scored on a scale of 0–4 as follows as described under methods. […]
# MDA-MB-453 (LAR) = assay: MTT cell growth assay, 7 days; type: cell-based; conditions: Homo sapiens, MDA-MB-453, 168 h
# Procedure: as §1
# HCC-1806 (BL2) = assay: MTT cell growth assay, 7 days; type: cell-based; conditions: Homo sapiens, HCC1806, 168 h
# Procedure: as §1
# MFM-223 (LAR) = assay: MTT cell growth assay, 7 days; type: cell-based; conditions: Homo sapiens, MFM-223, 168 h
# Procedure: as §1
# MDA-MB-468 (BL1) = assay: MTT cell growth assay, 7 days; type: cell-based; conditions: Homo sapiens, MDA-MB-468, 168 h
# Procedure: as §1
# MDA-MB-231 (MSL) = assay: MTT cell growth assay, 7 days; type: cell-based; conditions: Homo sapiens, MDA-MB-231, 168 h
# Procedure: as §1
# Mnk1 = target: T1, Mnk1 (Homo sapiens, UniProt Q9BUB5); assay: Surface plasmon resonance (OpenSPR) binding to immobilized GST-Mnk1; conditions: SPR, 1.25, 10 and 30 µM, 1:1 Langmuir model, 30 °C, scouting analysis; read-out: dissociation constant (KD)
# T1 construct: incubated with recombinant full length Mnk1 proteins or cell lysates overnight at 4 °C; GST
# T1 sequence (Q9BUB5 whole entry): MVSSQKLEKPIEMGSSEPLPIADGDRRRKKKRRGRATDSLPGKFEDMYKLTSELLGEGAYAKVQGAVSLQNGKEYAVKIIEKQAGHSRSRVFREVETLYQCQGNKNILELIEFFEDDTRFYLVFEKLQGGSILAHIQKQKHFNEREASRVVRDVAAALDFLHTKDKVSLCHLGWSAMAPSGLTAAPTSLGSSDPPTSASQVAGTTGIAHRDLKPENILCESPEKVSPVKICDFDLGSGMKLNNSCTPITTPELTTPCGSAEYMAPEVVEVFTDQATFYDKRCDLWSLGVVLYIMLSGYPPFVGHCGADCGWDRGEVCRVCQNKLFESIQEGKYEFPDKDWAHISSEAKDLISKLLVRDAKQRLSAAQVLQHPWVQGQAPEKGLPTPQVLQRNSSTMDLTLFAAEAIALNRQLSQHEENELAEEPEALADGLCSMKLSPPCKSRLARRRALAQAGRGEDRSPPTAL
# Procedure: Purified recombinant Mnk1 protein with GST tag (2.5 µg/mL) was fixed on GST sensor chip (Nicoya) by capture-coupling, then VNLG-152R (1.25, 10 and 30 µM) were injected (flow rate of 20 µL/min) sequentially into the chamber in running buffer (PBS-T with 10% DMSO). The interaction of Mnk1 with VNLG-152R was detected by Open SPRTM (Nicoya Lifesciences, Kitchener, ON, Canada) at 30 °C. The chip was regenerated with regeneration solution (10 mM glycine-HCL) at a flow rate of 150 µL/min. The close curve fitting to the sensograms were calculated by global fitting curves (1:1 Langmuir binding model). The data was retrieved and analyzed with TraceDraw software (Kitchener, ON, Canada).
structure (smiles),measurement,setting,value
"CC1=C(/C=C/C(C)=C/C=C/C(C)=C/C(=O)Nc2ccc(F)cc2)C(C)(C)CCC1n1ccnc1 (racemic) [VNLG-152R, 4-(±)-(1H-imidazol-1-yl)-N-(4-fluorophenyl)-(E)-retinamide]",MTD at 14 days,[1],> 50 mg/kg
same,tumor growth inhibition (TGI),[2]; 5 mg/kg/day IP,91%
same,tumor growth inhibition (TGI),[2]; 10 mg/kg/day IP,97%
same,increase in the Bax/Bcl-2 ratio vs control,"[2]; 20 mg/kg IP, tumor lysates",470 fold
same,tumor growth inhibition (TGI),[2]; 20 mg/kg/day IP,97%
same,changes in body weights,"[2]; 5, 10, 20 mg/kg IP",no significant changes in body weights were observed
same,"gross organ (liver, lung and kidney) abnormalities","[2]; 5, 10, 20 mg/kg IP, H&E staining","no gross organ (liver, lung and kidney) abnormalities"
same,"expression of Mnk1, Mnk2, p-eIF4E, cyclin D1, Bcl-2, Bax and Bad in tumors","[2]; 10 or 20 mg/kg IP, western blot","significant dose-dependent suppressions of Mnk1, Mnk2, p-eIF4E, cyclin D1, Bcl-2, and up-regulation of Bax and Bad"
same,GI50,MDA-MB-436 (MSL),890 ± 30 nM
same,GI50,MDA-MB-453 (LAR),740 ± 30 nM
same,GI50,HCC-1806 (BL2),810 ± 40 nM
same,GI50,MFM-223 (LAR),1860 ± 120 nM
same,GI50,MDA-MB-468 (BL1),890 ± 60 nM
same,GI50,MDA-MB-231 (MSL),620 ± 30 nM
same,Kd,Mnk1,6460 nM
